Measured values: patent US6713603B2, “Chiral peptide nucleic acids” (Isis Innovation Limited, priority 1996, dated 2004)
Blank lines part the entries; values can stand above or below the compound they belong to. [cPNA-N] = chiral peptide nucleic acid unit: glycyl-D-proline with cis-4-nucleobase (N: the base); {LysNH2} = C-terminal L-lysinamide cap

Key:
Sequence ID No. 2 = assay: Tm of mixed-base cPNA hybridised with complementary oligonucleotide Sequence ID No. 2; type: binding
From the text: (§1) All four bases found in DNA were introduced into the glycyiproline building units with the cis-D configuration and from these mixed cPNAs containing all four nucleobases have been made. The sequence GTAGATCACT, capped at its C-terminus with L-lysinamide was synthesized, and its binding properties with oligonucleotides investigated. Since it is important to determine the preferred orientation of binding of these novel CPNAs to oligonucleotides, both of the possible complementary oligonucleotides were prepared, i.e. Sequence ID No. 2, and Sequence ID No. 3, and hybridised with the chiral PNA.
(§2) All the Tm measurements were carried out on a Varian CARY 13 UV spectrophotometer equipped with a temperature control system. […] The sample for Tm measurement was prepared by mixing calculated amounts of stock oligonucleotide and nucleopeptide solutions together and the calculated amounts of NaCl and sodium phosphate buffer (pH 7.0) were then added as stock solutions and the final volumes were adjusted to 3.0 ml by addition of water. […] The OD260 was recorded in steps from 5-95° C. (heater temperature) with a temperature increment of 0.25-0.5° C./min, The results were normalised by dividing the absorbance at each temperature by the initial absorbance. […] The melting temperatures were determined from the maxima of the first derivative plots of the normalised OD260 against temperature. […]

[1] = test system: complementary oligonucleotides; assay: 1H NMR experiment: mixing cPNA with complementary oligonucleotides (solubility of complex); type: physicochemical; conditions: mmolar concentration
Description: Following the promising results obtained on the binding is studies of the cPNA with complementary oligonucleotides by Tm measurement, a ^1H NMR experiment was performed on the mixed sequence decamer, H-Gly-D-Pro(cis-4-G)-Gly-D-Pro(cis-4-T)-Gly-D-Pro(cis-4-A)-Gly-D-Pro(cis-4-G)-Gly-D-Pro(cis-4-A)-Gly-D-Pro(cis-4-T)-Gly-D-Pro(cis-4-C)-Gly-D-Pro(cis-4-A)-Gly-D-Pro(cis-4-C)-Gly-D-Pro(cis-4-T)-LysNH2, and its complementary oligonucleotides, both in parallel and antiparallel fashion. […] In an attempt to overcome this problem it was decided to synthesise a cPNA analogue, containing a hydrophilic spacer amino acid—namely serine—in place of the glycine spacer in the backbone while retaining the cis-D-configuration of the proline moiety. […] Thus the target molecules were diastereomeric thymine-decamers H-[L-Ser-D-Pro(cis-4-T)]10LysNH2 (“LD-ST10”) and H-[D-Ser-D-Pro(cis-4-T)]10LysNH2 (“DD-ST10”).

Sequence ID No. 3 = assay: Tm of mixed-base cPNA hybridised with complementary oligonucleotide Sequence ID No. 3; type: binding
From the text: as §1, §2

Solubility in water = type: physicochemical
dA10 [2] = assay: 1H NMR experiment: mixing DD-ST10 with dA10 (solubility of complex); type: physicochemical; conditions: 0.5 mM DD-ST10 in 10% D2O-H2O
Description: A ^1H NMR study of a mixture of DD-ST10 and dA10 was attempted.
^1H NMR study of a mixture of DD-ST10 and dA10 was performed on a Bruker AMX 500 spectrometer (500 MHz). The ^1H NMR spectra of DD-ST10 and dA10 were recorded separately (at a concentration of 0.53 mM for the DD-ST10 and 0.67 mM for the dA10 in 10% D2O in H2O).

dA10 [3] = assay: Melting curves (Tm) of hybrids of cPNAs with dA10; type: binding; conditions: 260 nm; for Tm with dA10: 150 mM sodium chloride, 10 mM sodium phosphate pH 7.0
Description: Although both cis-D and cis-L analogues gave melting curves with poly(dA) and poly(rA), only the cis-D analogue gave a well-defined melting curve with (dA)10, with Tm=61° C., under the same conditions.
(§3) Further investigation of the nature of the cis-D peptide nucleic acid-oligonucleotide interaction was undertaken by determining the melting curve with (dT)10.
(§4) All the Tm measurements were carried out on a Varian CARY 13 UV spectrophotometer equipped with a temperature control system. The machine was controlled by a CARY 13 software running on an IBM PS/2 system model 30/286. The sample for Tm measurement was prepared by mixing calculated amounts of stock oligonucleotide and nucleopeptide solutions together and the calculated amounts of NaCl and sodium phosphate buffer (pH 7.0) were then added as stock solutions and the final volumes were adjusted to 3.0 ml by addition of water. The samples were transferred to a 10 mm quartz cell with teflon stopper and equilibrated at the starting temperature for at least 30 min. The OD260 was recorded in steps from 5-95° C. (heater temperature) with a temperature increment of 0.25-0.5° C./min, The results were normalised by dividing the absorbance at each temperature by the initial absorbance. Analysis of the data was performed on a KaleidaGraph software 2.1.3 (Abelbeck Software) running on a Macintosh LC III computer. The OD260 was normalised by dividing with the initial OD260. The melting temperatures were determined from the maxima of the first derivative plots of the normalised OD260 against temperature. Percent hyperchromicity was calculated from the ratio of the OD260 at the end of experiment to the initial OD260.

poly(rA) = assay: Melting curves (Tm) of 1:1 hybrids of cPNAs with poly(rA); type: binding; conditions: 150 mM sodium chloride, 10 mM sodium phosphate pH 7.0; for Tm with poly (rA): 1:1 hybrid, 260 nm; for % hypochromicity with poly (rA): from melting curves at 260 nm
Description: (§5) The deca-thymine glycyl-proline peptide nucleic acids with cis-L, trans-D and cis-D stereochemistry, and C-terminal L-lysinamide were mixed in 1:1 ratio with poly(rA) and poly(dA) in the presence of 150 mM NaCl and sodium phosphate buffer (10 mM Na^+, pH 7.0) and the Tm determined (FIG. 3). […] The magnitudes of absorbance change were of the order of 30-40%.
as §4

poly(dA) = assay: Melting curves (Tm) of 1:1 hybrids of cPNAs with poly(dA); type: binding; conditions: for Tm with poly (dA): 1:1 hybrid, 260 nm; for Tm with poly (dA) / % hypochromicity with poly (dA): 150 mM sodium chloride, 10 mM sodium phosphate pH 7.0; for % hypochromicity with poly (dA): from melting curves at 260 nm
Description: as §5
FIG. 3. The melting curves of the 1:1 hybrids of (a) H-[Gly-L-Pro(cis-4-T)]10-Lys-NH2, (b) H-[Gly-D-Pro(cis-4-T)]10-Lys-NH2, (c) H-[Gly-D-Pro(trans-4-T)]10-Lys-NH2 with poly(dA) at 150 mM NaCl, 10 mM sodium phosphate, pH 7.0 and (d) poly(dA) alone. The poly(dA) concentration was 10.8 μM dA nucleotide. The melting curves were recorded at 260 nm and the rate of heating was 0.5° C./min.
as §4

(dT)10 = assay: Melting curve of 1:1 mixture with (dT)10; type: binding
Description: as §3
as §4, with “Analysis of the data was performed on a KaleidaGraph software 2.1.3 (Abelbeck Software) running on a Macintosh LC III computer. The OD260 was normalised by dividing with the initial OD260.” left out

melting point: > 200 °C
Compound: Cc1cn([C@H]2C[C@@H](C(=O)O)N(C(=O)CNC(=O)OCC3c4ccccc4-c4ccccc43)C2)c(=O)[nH]c1=O [5a, N-(N-Fluoren-9-ylmethoxycarbonylglycyl)-cis-4-(thymin-1-yl)-L-proline]

melting point: > 200 °C
Compound: Cc1cn([C@H]2C[C@H](C(=O)O)N(C(=O)CNC(=O)OCC3c4ccccc4-c4ccccc43)C2)c(=O)[nH]c1=O [5b, N-(N-Fluoren-9-ylmethoxycarbonylglycyl)-trans-4-(thymin-1-yl)-D-proline]

melting point: > 200 °C
Compound: Cc1cn([C@@H]2C[C@H](C(=O)O)N(C(=O)CNC(=O)OCC3c4ccccc4-c4ccccc43)C2)c(=O)[nH]c1=O [5c, N-(N-Fluoren-9-ylmethoxycarbonylglycyl)-cis-4-(thymin-1-yl)-D-proline]

melting point: 124 to 126 °C
Compound: Cc1cn([C@H]2C[C@@H](C(=O)Oc3c(F)c(F)c(F)c(F)c3F)N(C(=O)CNC(=O)OCC3c4ccccc4-c4ccccc43)C2)c(=O)[nH]c1=O [6a, N-(N-Fluoren-9-ylmethoxycarbonylglycyl)-cis-4-(thymin-1-yl)-L-proline pentafluorophenyl ester]

melting point: 115 to 124 °C
Compound: Cc1cn([C@H]2C[C@H](C(=O)Oc3c(F)c(F)c(F)c(F)c3F)N(C(=O)CNC(=O)OCC3c4ccccc4-c4ccccc43)C2)c(=O)[nH]c1=O [6b, N-(N-Fluoren-9-ylmethoxycarbonylglycyl)-trans-4-(thymin-1-yl)-D-proline pentafluorophenyl ester]

melting point: 122 to 126 °C
Compound: Cc1cn([C@@H]2C[C@H](C(=O)Oc3c(F)c(F)c(F)c(F)c3F)N(C(=O)CNC(=O)OCC3c4ccccc4-c4ccccc43)C2)c(=O)[nH]c1=O [6c, N-(N-Fluoren-9-ylmethoxycarbonylglycyl)-cis-4-(thymin-1-yl)-D-proline pentafluorophenyl ester]

melting point: 125 to 130 °C
Compound: O=C(NCC(=O)N1C[C@H](n2cnc3c(NC(=O)c4ccccc4)ncnc32)C[C@@H]1C(=O)Oc1c(F)c(F)c(F)c(F)c1F)OCC1c2ccccc2-c2ccccc21 [compound 10, N-(N-Fluoren-9-ylmethoxycarbonylglycyl)-cis-4-(N6-benzoyladenin-9-yl)-D-proline pentafluorophenyl ester]

melting point: 133 to 137 °C
Compound: O=C(NCC(=O)N1C[C@H](n2ccc(NC(=O)c3ccccc3)nc2=O)C[C@@H]1C(=O)Oc1c(F)c(F)c(F)c(F)c1F)OCC1c2ccccc2-c2ccccc21 [compound 13, N-(N-Fluoren-9-ylmethoxycarbonylglycyl)-cis-4-(N4-benzoylcytosin-1-yl)-D-proline pentafluorophenyl ester]

melting point: 146 to 150 °C
Compound: CC(C)C(=O)Nc1nc2c(ncn2[C@@H]2C[C@H](C(=O)Oc3c(F)c(F)c(F)c(F)c3F)N(C(=O)CNC(=O)OCC3c4ccccc4-c4ccccc43)C2)c(=O)[nH]1 [compound 16, N-(N-Fluoren-9-ylmethoxycarbonylglycyl)-cis-4-(N2-isobutyrylguanin-9-yl)-D-proline pentafluorophenyl ester]

Compound: H-Gly-D-Pro(cis-4-G)-Gly-D-Pro(cis-4-T)-Gly-D-Pro(cis-4-A)-Gly-D-Pro(cis-4-G)-Gly-D-Pro(cis-4-A)-Gly-D-Pro(cis-4-T)-Gly-D-Pro(cis-4-C)-Gly-D-Pro(cis-4-A)-Gly-D-Pro(cis-4-C)-Gly-D-Pro(cis-4-T)-Lys-NH2 (GTAGATCACT; all [cPNA-N], 3' {LysNH2}, methylation of C not given here; glycyl-D-proline chiral PNA backbone, free N-terminus)
Tm with complementary oligonucleotide Sequence ID No. 2 (Sequence ID No. 2): 47 °C
behaviour on mixing with complementary oligonucleotides (parallel and antiparallel) [1]: a white precipitate formed immediately
Tm with complementary oligonucleotide Sequence ID No. 3 (Sequence ID No. 3): 43 °C
solubility in water of the cPNA alone (Solubility in water): freely soluble

behaviour on addition of 20 mol % of dA10 (dA10 [2]): an immediate precipitation occurred
Compound: H-[D-Ser-D-Pro(cis-4-T)]10LysNH2 [DD-ST10]

binding with poly(dA), comparison of the 10 mers (poly(dA); 10 mers derived from (6a), (6b) and (6c)): binds most strongly
Compound: H-[Gly-D-Pro(cis-4-T)]10-Lys-NH2 [H-[Gly-D-Pro(cis-4-T)]10-LysNH2]
Tm with dA10 (dA10 [3]): 61 °C
hyperchromicity of 1:1 mixture with (dA)10 (dA10 [3]; on heating): ca. 20%
Tm with poly (rA) (poly(rA)): 72 °C
% hypochromicity with poly (rA) (poly(rA)): 45%
Tm with poly (dA) (poly(dA)): 70 °C
% hypochromicity with poly (dA) (poly(dA)): 28%
increase in absorbance at 260 nm on heating, 1:1 mixture with (dT)10 ((dT)10): no significant increase

Compound: H-[Gly-D-Pro(trans-4-T)]10-Lys-NH2 [H-[Gly-D-Pro(trans-4-T)]10-LysNH2]
Tm with dA10 (dA10 [3]): No melting
Tm with poly (rA) (poly(rA)): No melting
Tm with poly (dA) (poly(dA)): No melting
solubility in water compared with the other T10 cPNAs (Solubility in water): considerably more soluble than the other two

Compound: H-[Gly-L-Pro(cis-4T)]10-Lys-NH2 [H-[Gly-L-Pro(cis-4-T)]10-LysNH2]
Tm with dA10 (dA10 [3]): 42 °C
Tm with dA10 (dA10 [3]; listed as cis-L analogue): near room temperature
Tm with poly (rA) (poly(rA)): 73 °C
% hypochromicity with poly (rA) (poly(rA)): 36%
Tm with poly (dA) (poly(dA)): 69 °C
% hypochromicity with poly (dA) (poly(dA)): 40%
